Two sequences from patent publication US20080207521A1, “PEPTIDE LIGAND TO IMPAIR CANCER CELL MIGRATION” (priority 2005, published 2008) can be followed below.

For one test, the system named is MDA-MB-468 cells. In words: Adhesion of MDA-MB-468 breast cancer cells to collagen I (MTS). The test is classed as cell-based, human. The following applies: pure peptide 100 μM; 60 min. As for the experimental part: The adhesion assay was carried out as previously described (12). Briefly, cells were serum-depleted for 16 h, detached with Versene and allowed to adhere as single cells to collagen I for 60 (MDA-MB-468) or 90 min (HB2) at 37° C. Non-adherent cells were removed by washing with PBS. The adherent cells were incubated with a (3-(4,5-dimethylthiazol-2-yl)-5-(3-carboxymethoxyphenyl)-2-(-4-sulfophenyl)-2H-tetrazolium, inner salt (MTS) dye reduction assay (Promega, Madison, Wis.) and absorbance was measured at 490 nm using a Fluostar microplate reader from BMG LabTechnologies (GmbH, Offenberg, Germany). In each experiment a single value was calculated based on the mean of adhesion from six separate wells after the adhesion to plastic alone had been subtracted. The CM used as a control in the adhesion assays was obtained from confluent Wnt-5a overexpressing HB2 cells (for experiments with Wnt-5a antisense HB2 cells) or Wnt-5a overexpressing MCF-7 cells (for MDA-MB-468 cells) stably transfected with a vector over-expressing Wnt5a. A collected CM was always used within three days.
Peptide-induced effects on adhesion and DDR1 phosphorylation in MDA-MB-468 breast cancer cells. (A) Western blot analysis of Wnt-5a protein expression in Wnt-5a antisense and Wnt-5a over-expressing HB2 cells in comparison to MDA-MB-468 tumour cells. The blot is representative of 9 separate experiments. (B) Peptide-induced effects on MDA-MB-468 tumour cell adhesion. The cells were allowed to adhere to collagen type I-coated wells for 60 min in the absence or presence of 100 μM of the indicated peptides or CM. The amounts of adhesive cells were analyzed as described in the methods and the results are given as means±SEM of 8 separate experiments. (C) MDA-MB-468 cell adhesion to collagen I-coated wells in the absence or presence of peptide 175 or a peptide with same amino acid sequence except for a substitution of cysteine for alanine (175Ala) or CM. The amount of adherent cells was estimated as in panel A and expressed as means±SEM of 6 separate experiments, ns=not significant, ** p<0.01 and *** p<0.001. (D) Single MDA-MB-468 cells were allowed to adhere to collagen I-coated plates for 60 min in the absence or presence of the indicated peptides (100 μM), CM or recombinant Wnt-5a (0.8 µg/ml). DDR1 immunoprecipitates were Western blotted with first an anti-phosphotyrosine Ab and then after stripping with an anti-DDR1 Ab. The blots shown are representative of 6 separate experiments.
Effects of peptide 175 modifications on its ability to induce MDA-MB-468 tumour cell adhesion and migration. (A) The cells were allowed to adhere for 60 min to collagen-I coated wells in the absence or presence of peptide 175, three stepwise N-terminal deletion variants of peptide 175 or a formylated version of the tested hexapeptide derived from peptide 175. The amounts of adhesive cells were analyzed as described in the methods and the results are given as means±SEM of 6 separate experiments. (B and C) The cells were allowed to migrate for 18 h in the absence or presence of 1 or 10 μM of peptide 175 (B) or the formylated hexapeptide (C). The data are given as means±SEM of 6 separate experiments, each performed in triplicate. * p<0.05, p<0.01.

The subject of test [1] is filamentous actin (F-actin). The test is described as follows: F-actin content of MDA-MB-468 cells (AlexaFluor 488 phalloidin fluorescent microscopy). The test is classed as cell-based, human. The following applies: peptide 100 μM; 18 h; compared to untreated cells. As for the experimental part:
MDA-MB-468 cells were detached from the tissue culture dishes by incubation with Versene for 10 min at 37° C., washed, re-suspended as single cells in serum-free DMEM medium supplemented with 0.5% BSA with or without peptide 175 (100 μM), and plated on a cover glass, pre-coated with 10 µg/ml collagen-I, in a cell culture dish. These experiments were terminated after 18 h by fixing the cells with 4% paraformaldehyde for 10 min at 4° C.
The cells were then permeabilized by incubation with 0.5% Trition X-100 for 5 min and blocked by incubation with a 3% BSA solution supplemented with 0.3% Triton X-100 for 45 min. The staining of the cells was performed in the dark by incubation for 40 min with AlexaFluor® 488 phalloidin (Molecular Probes, Eugene, Oreg.) at a dilution of 1:500 and in the presence of 1% BSA. Thereafter the cells were extensively washed and finally mounted with Dako Cytomation fluorescent mounting medium. The samples were examined and photographed in a Nikon Eclipse 800 microscope using a 60× oil immersion objective.
Peptide-induced effects on MDA-MB-468 tumour cell migration and their content of F-actin. (A) The cells were allowed to migrate for 18 h in the absence or presence of the indicated peptides (100 μM) The data in panel A are expressed as means±SEM of 8 separate experiments, each performed in triplicate. * p<0.05. […]

On to “ADFRKVGDALKEKYD [peptide 169, Wnt-5a aa 242-256]”, for which the “adhesion to collagen I” value with MDA-MB-468 cells is “significantly increased”.

Consider “NKTSEGMDGCEL (Human) [peptide 175, Wnt-5a aa 311-322]”, for which the “cellular content of filamentous actin (F-actin)” value in test [1] is given as “significantly higher cellular content of filamentous actin”. The “adhesion to collagen I” value in the test with MDA-MB-468 cells is listed as “significantly increased”.
